The record followed here is BindingDB's records for doi:10.1021/jm9800245 (F. Hoffmann-La Roche, 1998).

Counter-ions that a name gives are not always drawn. Some results are limits rather than exact numbers.

The nature of assay [1]: Inhibition of beta-lactamase of Escherichia coli TEM-3 […].
Assay [2] addresses Beta-lactamase AmpC (Pseudomonas aeruginosa). In words: Inhibition of beta-lactamase of Pseudomonas aeruginosa 18 SH (class C).

In general, IC50 refers to the midpoint of a concentration-inhibition curve. Read a high IC50 as weaker potency. On to `NC(=O)c1ccc(NC(=O)N2CC[C@@H]3C2C(=O)N3S(=O)(=O)O)cc1` (stereo partly drawn) [(2S,5R)-2-(4-Carbamoyl-phenylcarbamoyl)-7-oxo-2,6-diaza-bicyclo[3.2.0]heptane-6-sulfonic acid], for which the IC50 in assay [1] came to 9000 µM; in assay [2] it was 0.217 µM.

On to `CC(C)(C)OC(=O)N1CC[C@@H]2C1C(=O)N2S(=O)(=O)O` (stereo partly drawn) [(2S,5R)-7-Oxo-6-sulfo-2,6-diaza-bicyclo[3.2.0]heptane-2-carboxylic acid tert-butyl ester], for which the IC50 in assay [1] was over 1000 µM; in assay [2] it was 1.5 µM.

In the case of `CC(C)(C)OC(=O)N1CCC2C1C(=O)N2OS(=O)(=O)O` (configuration not stated) [sodium salt-tert-butyl 7-oxo-6-(sulfooxy)-2,6-diazabicyclo[3.2.0]heptane-2-carboxylate], the IC50 in assay [1] was determined as 0.165 µM; in assay [2] it was 0.028 µM.

Turning to `NC(=O)c1ccc(NC(=O)N2CCC3C2C(=O)N3OS(=O)(=O)O)cc1` (configuration not stated) [sodium salt-Sulfuric acid mono-[2-(4-carbamoyl-phenylcarbamoyl)-7-oxo-2,6-diaza-bicyclo[3.2.0]hept-6-yl] ester], in assay [2], the IC50 was 0.026 µM.
